Test results published in patent US20230312550A1, “N-(2-(4-CYANOTHIAZOLIDIN-3-YL)-2-OXOETHYL)-QUINOLINE-4-CARBOXAMIDES” (AstraZeneca AB, priority 2020, published 2023).
In brackets after ≈: the same amount, converted by molar mass.

Assays:
[1] = Metabolic stability in human hepatocytes (hHep); assay type: in vitro ADME; settings: n = 1 or geometric mean of n = 2
Kinetic solubility = settings: kinetic from dmso stock
Protocol: Kinetic solubility was measured as described in Comput Aided Mol Des 2015, 29, 795.

[2] = target: human Fibroblast activation protein alpha (hFAP) (Homo sapiens (Human), UniProt Q12884); assay: hFAP inhibition assay (tight binders); assay type: biochemical; settings: Ala-Pro-AMC 20 μM, n = 1 or geometric mean n = 2-6; also: hFAP 2.4 pM
Protocol: The plates were read on a PHERAstar® reader with excitation 340 nm and emission 460 nm. Data were analyzed in Genedata Screener®. IC50 values were determined by plotting % inhibition versus log compound concentration and using a one site dose response model.

[3] = Metabolic stability in rat hepatocytes (rHep); settings: n = 1 or geometric mean of n = 2-3
[4] = target: Prolyl endopeptidase, Prolyl Oligopeptidase (hPREP) (Homo sapiens (Human), UniProt P48147); assay: hPrep inhibition assay; assay type: biochemical; settings: hPREP 0.6 nM, Z-Gly-Pro-amino-methylcoumarin 50 μM; read-out: PREP IC50
How it was run: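 Fluorogenic read-out (340 nm excitation, 460 nm emission) after 20 min at rt, using 50 μM final Z-Gly-Pro-aminomethylcoumarin and 0.6 nM final enzyme, following 15 min compound preincubation. Buffer pH 7.5 with glutathione and Triton X-100. IC50 via one-site model on % inhibition vs log concentration.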

hFAP (M39-A757) = hFAP (M39-A757) (Homo sapiens (Human), UniProt Q12884); assay: hFAP binding assay (surface plasmon resonance); settings: SPR, 20° C.; for hFAP Binding assay k(off) / hFAP Binding assay k(on): single cycle kinetics; for Kd: n = 1 or geometric mean n = 2-4
Caco-2 cell permeability = settings: human
Protocol: Caco-2 cell permeability was measured as described in Mol Pharm 2017, 14, 1601.

[5] = Metabolic stability in human liver microsomes (HLM); settings: human
Protocol: Metabolic stability in HLM was measured as described in J Comput Aided Mol Des 2015, 29, 795.

FAP = FAP (Homo sapiens (Human), UniProt Q12884); assay: hFAP inhibition assay; assay type: biochemical; settings: hFAP […], Ala-Pro-AMC 20 μM; n = 1 or geometric mean n = 2-3
How it was run: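 Compounds (10-point, 3-fold dilutions from 50 μM top) were preincubated 15 min at rt in the dark with 0.48 nM hFAP in pH 7.4 Tris/NaCl/Chaps buffer. Reaction was started with substrate (40 μM solution) and ran 30 min at rt. Read by fluorescence (340/460 nm); IC50 from one-site fit.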

[6] = Solubility, kinetic solubility, n = 1 or average of n = 2-3
[7] = HLM CLint, n = 1 or average of n = 2-3

FAP, sequence (Q12884 38-760): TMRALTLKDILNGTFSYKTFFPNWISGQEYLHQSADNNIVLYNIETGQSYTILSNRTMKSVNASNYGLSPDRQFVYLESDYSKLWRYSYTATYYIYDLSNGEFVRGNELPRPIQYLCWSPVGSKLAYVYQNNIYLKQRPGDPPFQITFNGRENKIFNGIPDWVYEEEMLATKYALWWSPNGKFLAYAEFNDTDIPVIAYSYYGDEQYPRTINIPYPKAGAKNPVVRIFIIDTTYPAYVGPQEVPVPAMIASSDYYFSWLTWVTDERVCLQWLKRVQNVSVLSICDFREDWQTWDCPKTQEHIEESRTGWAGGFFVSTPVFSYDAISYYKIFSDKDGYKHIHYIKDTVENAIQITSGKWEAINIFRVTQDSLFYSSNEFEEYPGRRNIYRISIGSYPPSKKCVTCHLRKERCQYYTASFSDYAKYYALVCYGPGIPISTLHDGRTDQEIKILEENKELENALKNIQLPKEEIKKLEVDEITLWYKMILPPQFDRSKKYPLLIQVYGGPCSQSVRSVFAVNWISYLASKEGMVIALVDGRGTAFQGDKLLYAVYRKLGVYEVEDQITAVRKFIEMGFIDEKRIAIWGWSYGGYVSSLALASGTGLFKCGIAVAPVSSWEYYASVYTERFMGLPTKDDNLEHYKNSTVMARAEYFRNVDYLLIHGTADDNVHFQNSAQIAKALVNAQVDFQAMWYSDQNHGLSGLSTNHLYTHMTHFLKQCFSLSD
human Fibroblast activation protein alpha (hFAP), sequence (Q12884 38-760): as above
hFAP (M39-A757), sequence (Q12884 39-757): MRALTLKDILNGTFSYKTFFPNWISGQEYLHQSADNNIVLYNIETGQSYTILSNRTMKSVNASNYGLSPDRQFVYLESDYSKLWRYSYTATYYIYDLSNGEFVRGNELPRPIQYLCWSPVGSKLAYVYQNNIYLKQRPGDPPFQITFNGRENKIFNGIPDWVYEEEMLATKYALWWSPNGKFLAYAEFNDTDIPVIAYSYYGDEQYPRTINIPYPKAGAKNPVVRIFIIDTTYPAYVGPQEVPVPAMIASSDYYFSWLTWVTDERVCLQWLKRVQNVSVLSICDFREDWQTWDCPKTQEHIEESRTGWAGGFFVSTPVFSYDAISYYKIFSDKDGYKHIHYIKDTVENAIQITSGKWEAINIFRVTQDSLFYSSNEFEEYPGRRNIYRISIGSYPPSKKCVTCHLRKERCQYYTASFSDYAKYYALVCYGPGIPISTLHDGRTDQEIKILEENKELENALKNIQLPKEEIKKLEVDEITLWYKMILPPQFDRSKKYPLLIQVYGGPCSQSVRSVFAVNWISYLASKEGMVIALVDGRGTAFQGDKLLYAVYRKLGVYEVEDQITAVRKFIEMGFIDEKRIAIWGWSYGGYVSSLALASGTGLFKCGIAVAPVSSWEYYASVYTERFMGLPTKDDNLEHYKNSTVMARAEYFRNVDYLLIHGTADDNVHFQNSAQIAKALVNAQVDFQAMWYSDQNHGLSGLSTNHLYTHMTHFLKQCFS
Prolyl endopeptidase, Prolyl Oligopeptidase (hPREP), sequence (P48147 whole entry): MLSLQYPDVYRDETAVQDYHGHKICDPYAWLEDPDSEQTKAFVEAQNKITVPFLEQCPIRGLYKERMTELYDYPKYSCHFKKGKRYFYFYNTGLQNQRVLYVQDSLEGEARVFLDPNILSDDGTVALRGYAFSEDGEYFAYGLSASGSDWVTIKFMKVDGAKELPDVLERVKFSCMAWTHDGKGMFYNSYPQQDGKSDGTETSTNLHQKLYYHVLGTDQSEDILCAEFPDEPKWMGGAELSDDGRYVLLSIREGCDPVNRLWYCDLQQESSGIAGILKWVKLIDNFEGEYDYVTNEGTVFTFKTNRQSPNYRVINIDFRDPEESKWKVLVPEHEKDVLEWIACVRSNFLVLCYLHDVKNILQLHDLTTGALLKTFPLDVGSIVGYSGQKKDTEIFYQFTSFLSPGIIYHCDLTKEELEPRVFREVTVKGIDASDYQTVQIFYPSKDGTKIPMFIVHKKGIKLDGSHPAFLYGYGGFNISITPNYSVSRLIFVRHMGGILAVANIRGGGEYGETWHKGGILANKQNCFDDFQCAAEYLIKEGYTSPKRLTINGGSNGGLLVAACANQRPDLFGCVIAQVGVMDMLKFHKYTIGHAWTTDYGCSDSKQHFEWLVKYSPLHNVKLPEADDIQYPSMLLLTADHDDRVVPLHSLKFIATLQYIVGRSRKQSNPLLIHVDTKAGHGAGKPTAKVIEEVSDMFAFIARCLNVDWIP

Compound | hHep CLint [1] [μL/min/1E6] | solubility (Kinetic solubility; [6]) [µM] | IC50 [2] [nM] | rHep CLint [3] [μL/min/1E6] | IC50 [4] [nM] | hFAP Binding assay k(off) (hFAP (M39-A757)) [s⁻¹] | hFAP Binding assay k(on) (hFAP (M39-A757)) [M⁻¹ s⁻¹] | Kd (hFAP (M39-A757)) [nM] | Papp A→B (Caco-2 cell permeability) [×10⁻⁶ cm/s] | Papp B→A (Caco-2 cell permeability) [×10⁻⁶ cm/s] | efflux ratio (Caco-2 cell permeability) | microsomal CLint [5, 7] [µL/min/mg] | IC50 (FAP) [nM] | Papp (Caco-2 cell permeability) [×10⁻⁶ cm/s] | solubility (Kinetic solubility) [µM] | microsomal CLint [5] [µL/min/mg]
CS(=O)(=O)C[C@@H]1CN(c2ccc3nccc(C(=O)NCC(=O)N4CSC[C@H]4C#N)c3c2)CCO1 [Example 94, N-(2-((R)-4-Cyanothiazolidin-3-yl)-2-oxoethyl)-6-((S)-2-((methylsulfonyl)-methyl)morpholino)quinoline-4-carboxamide] | <1 | 920 (≈ 463 µg/mL) | 0.071 | 2.2 | 1800 | 0.000099 | 1900000 | 0.074 | 0.15 | 4.4 | 29 | 7.1 | – | – | – | –
N#C[C@@H]1CSCN1C(=O)CNC(=O)c1ccnc2ccc(N3CC(F)C3)cc12 [Example 21, (R)—N-(2-(4-Cyanothiazolidin-3-yl)-2-oxoethyl)-6-(3-fluoroazetidin-1-yl)quinoline-4-carboxamide] | <1 | 390 (≈ 156 µg/mL) | 0.11 | 17 | 93 | 0.0002 | 3000000 | 0.066 | 3.7 | 23 | 6.2 | 15 | 0.29 | – | – | –
N#C[C@@H]1CSCN1C(=O)CNC(=O)c1ccnc2ccc(N3CCCCO3)cc12 [Example 1, (R)—N-(2-(4-Cyanothiazolidin-3-yl)-2-oxoethyl)-6-(1,2-oxazinan-2-yl)-quinoline-4-carboxamide] | <1 | > 1000 | 0.099 | 4.9 | 410 | 0.00014 | 730000 | 0.18 | 4.7 | 29 | 6.1 | 14 | – | – | – | –
CC1(C)Cc2c(-c3ccc4nccc(C(=O)NCC(=O)N5CSC[C@H]5C#N)c4c3)cnn2C1 [Example 123, (R)—N-(2-(4-Cyanothiazolidin-3-yl)-2-oxoethyl)-6-(5,5-dimethyl-5,6-dihydro-4H-pyrrolo[1,2-b]pyrazol-3-yl)quinoline-4-carboxamide] | 1.6 | 280 (≈ 129 µg/mL) | 0.083 | 7.1 | 740 | 0.00042 | 3000000 | 0.14 | 0.17 | 29 | 170 | 32 | 0.25 | 14 | – | –
N#C[C@@H]1CSCN1C(=O)CNC(=O)c1ccnc2ccc(N3CCOC4(CCOCC4)C3)cc12 [Example 99, (R)—N-(2-(4-cyanothiazolidin-3-yl)-2-oxoethyl)-6-(1,9-dioxa-4-azaspiro[5.5]undecan-4-yl)quinoline-4-carboxamide] | 1.9 | – | 0.12 | 8.1 | 1100 | 0.0002 | 2100000 | 0.11 | 0.46 | 21 | 46 | – | – | – | 800 (≈ 385 µg/mL) | 16
C[C@@H]1COC[C@H](C)N1c1ccc2nccc(C(=O)NCC(=O)N3CSC[C@H]3C#N)c2c1 [Example 90, N-(2-((R)-4-Cyanothiazolidin-3-yl)-2-oxoethyl)-6-((3S,5R)-3,5-dimethyl-morpholino)quinoline-4-carboxamide] | 4.6 | > 1000 | 0.35 | 20 | 1100 | 0.00010 | 480000 | 0.38 | 1.2 | 19 | 16 | 100 | 0.75 | – | – | –
CO[C@@H]1CN(c2ccc3nccc(C(=O)NCC(=O)N4CSC[C@H]4C#N)c3c2)[C@H]1C [Example 30, N-(2-((R)-4-Cyanothiazolidin-3-yl)-2-oxoethyl)-6-((2S,3R)-3-methoxy-2-methylazetidin-1-yl)quinoline-4-carboxamide] | <1 | > 1000 | 0.12 | 7.2 | 510 | 0.00022 | 5200000 | 0.042 | 3.1 | 30 | 9.6 | < 3 | 0.28 | 15 | – | –
COCC1(C)CN(c2ccc3nccc(C(=O)NCC(=O)N4CSC[C@H]4C#N)c3c2)C1 [Example 29, (R)—N-(2-(4-Cyanothiazolidin-3-yl)-2-oxoethyl)-6-(3-(methoxymethyl)-3-methylazetidin-1-yl)quinoline-4-carboxamide] | <1 | 560 (≈ 246 µg/mL) | 0.055 | 4.5 | 500 | 0.000061 | 1100000 | 0.057 | 3.7 | 37 | 10 | 18 | 0.13 | 26 | – | –
N#C[C@@H]1CSCN1C(=O)CNC(=O)c1ccnc2ccc(N3CCCCC3)cc12 [Example 32, (R)—N-(2-(4-Cyanothiazolidin-3-yl)-2-oxoethyl)-6-(piperidin-1-yl)quinoline-4-carboxamide] | 4.1 | 240 (≈ 98.3 µg/mL) | 0.16 | 19 | 450 | 0.000029 | 1300000 | 0.022 | 8.7 | 28 | 3.3 | 40 | 0.3 | – | – | –
CS(=O)(=O)C[C@H]1CN(c2ccc3nccc(C(=O)NCC(=O)N4CSC[C@H]4C#N)c3c2)CCO1 [Example 92, N-(2-((R)-4-Cyanothiazolidin-3-yl)-2-oxoethyl)-6-((R)-2-((methylsulfonyl)-methyl)morpholino)quinoline-4-carboxamide] | <1 | 810 (≈ 408 µg/mL) | 0.074 | 1.7 | 2400 | 0.00011 | 2200000 | 0.047 | 0.12 | 4.2 | 35 | 14 | – | – | – | –
CC1(CS(C)(=O)=O)CN(c2ccc3nccc(C(=O)NCC(=O)N4CSC[C@H]4C#N)c3c2)C1 [Example 188, (R)—N-(2-(4-Cyanothiazolidin-3-yl)-2-oxoethyl)-6-(3-methyl-3-((methylsulfonyl)methyl)azetidin-1-yl)quinoline-4-carboxamide] | <1 | 990 (≈ 483 µg/mL) | 0.19 | 1.8 | 430 | 0.000022 | 2600000 | 0.011 | 0.18 | 3.7 | 21 | 3.1 | 0.28 | 0.28 | – | –
CC1(C)COC12CN(c1ccc3nccc(C(=O)NCC(=O)N4CSC[C@H]4C#N)c3c1)C2 [Example 18, (R)—N-(2-(4-Cyanothiazolidin-3-yl)-2-oxoethyl)-6-(3,3-dimethyl-1-oxa-6-azaspiro[3.3]heptan-6-yl)quinoline-4-carboxamide] | 3.7 | – | 0.047 | 6 | 570 | 0.000059 | 1400000 | 0.068 | 0.9 | 31 | 34 | – | 0.19 | 13 | 93 (≈ 42 µg/mL) | 22
